Test results reported in publication PMC5343027, “Crystal Structure of the Chloroplastic Oxoene Reductase ceQORH from Arabidopsis thaliana” (Frontiers in Plant Science, 2017).
Values belong to the compound of their own block, whether it stands above or below them.

Columns and labels:
[1] = target: T1, ceQORH (chloroplast envelope quinone oxidoreductase homolog) (Arabidopsis thaliana, UniProt Q9SV68); test: X-ray crystal structures, […] Å (binary) and […] Å (ternary with NADP+); format: binding
T1 sequence (Q9SV68 1-329): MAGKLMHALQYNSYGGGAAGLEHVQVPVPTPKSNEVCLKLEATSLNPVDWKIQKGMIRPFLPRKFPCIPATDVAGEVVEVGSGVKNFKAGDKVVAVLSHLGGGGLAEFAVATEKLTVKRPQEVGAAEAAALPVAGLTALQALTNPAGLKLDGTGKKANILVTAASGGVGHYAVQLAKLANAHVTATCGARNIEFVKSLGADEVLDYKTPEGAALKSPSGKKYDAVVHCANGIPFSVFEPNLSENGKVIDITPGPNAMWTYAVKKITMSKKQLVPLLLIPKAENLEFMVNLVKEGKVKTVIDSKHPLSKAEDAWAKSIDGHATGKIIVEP

[2] = target: T1, ceQORH (chloroplast envelope quinone oxidoreductase homolog); test: enzyme inhibition kinetics ([…] nm) after […] s preincubation, […] trans-1, […] diphenyl-2-propenone; low-quality crystal structure with NADPH not used; format: biochemical
[3] = target: T1, ceQORH (chloroplast envelope quinone oxidoreductase homolog); test: X-ray crystal structure, […] Å, ternary complex with 13-KOTE; format: binding

Structure (SMILES): CC/C=C\CC(=O)/C=C/C=C/CCCCCCCC(=O)O [13-KOTE, 13-oxo-9(Z), 11(E), 15(Z)-octadecatrienoic acid]
- X-ray crystal structures, 2.78 Å (binary) and 2.81 Å (ternary with NADP+) [1]: apo-ceQORH (5A3V), ceQORH-13-KOTE (5A3J), and ceQORH-NADP^+-13-KOTE (5A4D)

- IC50 [2]: 36 µM
Structure (SMILES): CCCCCC(=O)/C=C/C=C\CCCCCCCC(=O)O [13-KODE, 13-oxo-9(Z),11(E)-octadecadienoic acid]

Structure (SMILES): NC(=O)c1ccc[n+]([C@@H]2O[C@H](COP(=O)(O)OP(=O)(O)OC[C@H]3O[C@@H](n4cnc5c(N)ncnc54)[C@H](OP(=O)(O)O)[C@@H]3O)[C@@H](O)[C@H]2O)c1 [NADP^+]
- X-ray crystal structure, 2.81 Å, ternary complex with 13-KOTE [3]: NADP^+ is bound at the interface of the two domains and the nicotinamide ring is in the vicinity of the catalytic site
